Results published in ChEMBL document CHEMBL2073781, “Organ distribution of multidrug resistance proteins 1, 2, and 3 (Mrp1, 2, and 3) mRNA and hepatic induction of Mrp3 by constitutive androstane receptor activators in rats” (J Pharmacol Exp Ther, 2002).

Molecular target: ATP-binding cassette sub-family C member 2 (Rattus norvegicus, UniProt Q63120)
Assay: TP_TRANSPORTER: Branched DNA assay in vivo SD rat, kidney
Format: functional, organism-based, Sprague-Dawley

Sequence of ATP-binding cassette sub-family C member 2 (Q63120 whole entry): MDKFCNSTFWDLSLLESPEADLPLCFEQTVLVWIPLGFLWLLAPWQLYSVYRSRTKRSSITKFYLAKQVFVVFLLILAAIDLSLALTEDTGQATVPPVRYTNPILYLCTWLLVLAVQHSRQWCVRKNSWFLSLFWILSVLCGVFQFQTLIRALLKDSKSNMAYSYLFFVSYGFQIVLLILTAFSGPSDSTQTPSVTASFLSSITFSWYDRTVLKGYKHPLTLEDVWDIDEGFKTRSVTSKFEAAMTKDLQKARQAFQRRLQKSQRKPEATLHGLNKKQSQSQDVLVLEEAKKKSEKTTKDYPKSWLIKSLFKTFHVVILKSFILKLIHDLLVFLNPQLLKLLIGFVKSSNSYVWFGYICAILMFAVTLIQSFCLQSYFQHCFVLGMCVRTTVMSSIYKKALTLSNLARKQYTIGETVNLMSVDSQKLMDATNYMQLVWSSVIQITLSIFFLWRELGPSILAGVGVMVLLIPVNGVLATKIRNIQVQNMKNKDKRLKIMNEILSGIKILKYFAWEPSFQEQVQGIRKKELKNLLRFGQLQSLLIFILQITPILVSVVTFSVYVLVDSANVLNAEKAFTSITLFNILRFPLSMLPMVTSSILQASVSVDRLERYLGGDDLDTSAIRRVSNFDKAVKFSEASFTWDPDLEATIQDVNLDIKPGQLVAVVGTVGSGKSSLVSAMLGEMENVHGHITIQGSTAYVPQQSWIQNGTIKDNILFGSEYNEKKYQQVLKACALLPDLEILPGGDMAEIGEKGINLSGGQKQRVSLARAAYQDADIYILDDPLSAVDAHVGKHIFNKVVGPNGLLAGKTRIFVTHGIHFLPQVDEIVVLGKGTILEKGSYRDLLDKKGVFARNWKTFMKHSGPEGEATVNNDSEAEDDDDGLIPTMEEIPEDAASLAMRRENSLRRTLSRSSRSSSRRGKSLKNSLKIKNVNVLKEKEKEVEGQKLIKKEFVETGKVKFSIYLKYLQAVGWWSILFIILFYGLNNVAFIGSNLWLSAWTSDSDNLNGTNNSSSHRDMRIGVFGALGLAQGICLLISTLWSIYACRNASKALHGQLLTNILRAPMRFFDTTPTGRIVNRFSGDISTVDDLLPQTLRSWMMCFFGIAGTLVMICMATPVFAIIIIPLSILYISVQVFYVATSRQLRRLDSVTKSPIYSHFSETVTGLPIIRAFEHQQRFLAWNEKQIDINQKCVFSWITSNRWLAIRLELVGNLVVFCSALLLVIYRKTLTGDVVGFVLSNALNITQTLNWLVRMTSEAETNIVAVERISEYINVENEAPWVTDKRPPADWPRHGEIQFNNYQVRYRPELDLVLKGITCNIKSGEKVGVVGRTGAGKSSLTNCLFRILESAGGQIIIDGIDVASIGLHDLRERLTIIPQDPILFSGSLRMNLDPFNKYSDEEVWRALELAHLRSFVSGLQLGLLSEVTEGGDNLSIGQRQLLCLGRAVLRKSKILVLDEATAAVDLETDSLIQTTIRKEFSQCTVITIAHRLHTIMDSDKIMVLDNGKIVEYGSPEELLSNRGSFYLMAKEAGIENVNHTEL

Row | Structure (SMILES) | Activity
1 | CCCC[C@@H](CC)COC(=O)c1ccccc1C(=O)OC[C@@H](CC)CCCC [BIS(2-ETHYLHEXYL)PHTHALATE] | inducer [+]
2 | OCc1c[nH]c2ccccc12 [INDOLE-3-CARBINOL] | inducer [+]
3 | O=c1cc(-c2ccccc2)oc2ccc3ccccc3c12 [BETA-NAPHTHOFLAVONE] | inducer [+]
4 | CN(N=O)C(=O)N[C@@H](C=O)[C@@H](O)[C@H](O)[C@H](O)CO [STREPTOZOCIN] | inducer [+]
